Laboratory results: paper PMC5218480 (PLoS ONE, 2017)

System: MV-4-11 cells
Assay: Gene expression microarray analysis (Affymetrix PrimeView) and GSEA
Type: cell-based, human
Set-up: RFU PODN (11730768_x_at) / Fold change /veh PODN (11730768_x_at) / RFU LINC00158 (11744669_a_at) / Fold change /veh LINC00158 (11744669_a_at) / RFU DUSP10 (11751237_a_at) / Fold change /veh DUSP10 (11751237_a_at) / RFU ID3 (11757404_x_at) / Fold change /veh ID3 (11757404_x_at) / RFU PLEKHG5 (11737974_s_at) / Fold change /veh PLEKHG5 (11737974_s_at) / RFU LRRC4B (11730491_at) / Fold change /veh LRRC4B (11730491_at) / RFU GIMAP4 (11747438_a_at) / Fold change /veh GIMAP4 (11747438_a_at) / RFU KRT8 (11758183_x_at) / Fold change /veh KRT8 (11758183_x_at) / RFU CNN1 (11734310_a_at) / Fold change /veh CNN1 (11734310_a_at) / RFU VPS37D (11726825_at) / Fold change /veh VPS37D (11726825_at) / RFU C10orf10 (11716522_x_at) / Fold change /veh C10orf10 (11716522_x_at) / RFU KIR2DL2 /// KIR2DL4 /// KIR2DL5A /// KIR2DL5B /// KIR2DS1 /// KIR2DS2 /// KIR2DS3 /// KIR2DS4 /// KIR3DL3 /// KIR3DL3 /// KIR3DS1 (11738374_at) / Fold change /veh KIR2DL2 /// KIR2DL4 /// KIR2DL5A /// KIR2DL5B /// KIR2DS1 /// KIR2DS2 /// KIR2DS3 /// KIR2DS4 /// KIR3DL3 /// KIR3DL3 /// KIR3DS1 (11738374_at) / RFU C1QL1 (11718748_at) / Fold change /veh C1QL1 (11718748_at) / RFU TMPRSS4 (11747572_a_at) / Fold change /veh TMPRSS4 (11747572_a_at) / RFU HAMP (11756126_x_at) / Fold change /veh HAMP (11756126_x_at) / RFU RNFT2 (11725882_a_at) / Fold change /veh RNFT2 (11725882_a_at) / RFU NR4A2 (11747474_a_at) / Fold change /veh NR4A2 (11747474_a_at) / RFU ABCC12 (11746883_a_at) / Fold change /veh ABCC12 (11746883_a_at) / RFU TMEM136 (11760407_x_at) / Fold change /veh TMEM136 (11760407_x_at) / RFU CLDN22 /// WWC2 (11732394_at) / Fold change /veh CLDN22 /// WWC2 (11732394_at) / RFU HLA-DPB1 (11760878_x_at) / Fold change /veh HLA-DPB1 (11760878_x_at) / RFU SPINT1 (11716480_a_at) / Fold change /veh SPINT1 (11716480_a_at) / RFU GAP43 (11754022_s_at) / Fold change /veh GAP43 (11754022_s_at) / RFU A4GNT (11735810_at) / Fold change /veh A4GNT (11735810_at) / RFU PRB3 (11715151_x_at) / Fold change /veh PRB3 (11715151_x_at) / RFU TUBB4B (11761932_at) / Fold change /veh TUBB4B (11761932_at) / RFU CAPN14 (11732068_a_at) / Fold change /veh CAPN14 (11732068_a_at) / RFU TMCC2 (11721928_a_at) / Fold change /veh TMCC2 (11721928_a_at) / RFU IRGQ (11745062_a_at) / Fold change /veh IRGQ (11745062_a_at) / RFU FAM174B (11720279_a_at) / Fold change /veh FAM174B (11720279_a_at) / RFU TMPRSS4 (11748680_a_at) / Fold change /veh TMPRSS4 (11748680_a_at) / RFU FAM212B (11763350_a_at) / Fold change /veh FAM212B (11763350_a_at) / RFU PLEKHG5 (11743358_a_at) / Fold change /veh PLEKHG5 (11743358_a_at) / RFU ZSCAN30 (11745921_a_at) / Fold change /veh ZSCAN30 (11745921_a_at) / RFU CMKLR1 (11741424_a_at) / Fold change /veh CMKLR1 (11741424_a_at) / RFU LOC101060620 /// MAPK8IP1 (11723275_at) / Fold change /veh LOC101060620 /// MAPK8IP1 (11723275_at) / RFU SPTSSB (11747773_x_at) / Fold change /veh SPTSSB (11747773_x_at) / RFU PRSS12 (11739890_at) / Fold change /veh PRSS12 (11739890_at) / RFU BIN1 (11741810_x_at) / Fold change /veh BIN1 (11741810_x_at) / RFU WNT11 (11732464_a_at) / Fold change /veh WNT11 (11732464_a_at) / RFU C10orf10 (11716521_a_at) / Fold change /veh C10orf10 (11716521_a_at) / RFU C5orf56 (11738089_at) / Fold change /veh C5orf56 (11738089_at) / RFU CYB561 (11721691_x_at) / Fold change /veh CYB561 (11721691_x_at) / RFU ANKRD19P (11752326_a_at) / Fold change /veh ANKRD19P (11752326_a_at) / RFU OR2T12 /// OR2T33 /// OR2T8 (11738714_s_at) / Fold change /veh OR2T12 /// OR2T33 /// OR2T8 (11738714_s_at) / RFU VCAN (11748164_a_at) / Fold change /veh VCAN (11748164_a_at) / RFU JSRP1 (11732532_at) / Fold change /veh JSRP1 (11732532_at) / RFU KRTAP10-11 (11738290_x_at) / Fold change /veh KRTAP10-11 (11738290_x_at) / RFU MYO3A (11730013_a_at) / Fold change /veh MYO3A (11730013_a_at) / RFU EBF3 (11725865_a_at) / Fold change /veh EBF3 (11725865_a_at) / RFU CAMK2N1 (11719241_x_at) / Fold change /veh CAMK2N1 (11719241_x_at) / RFU C5orf56 (11738088_a_at) / Fold change /veh C5orf56 (11738088_a_at) / RFU OLFML3 (11715873_a_at) / Fold change /veh OLFML3 (11715873_a_at) / RFU LOC100653217 /// NTM (11731650_a_at) / Fold change /veh LOC100653217 /// NTM (11731650_a_at) / RFU MAPK11 (11762145_a_at) / Fold change /veh MAPK11 (11762145_a_at) / RFU FIZ1 (11724087_x_at) / Fold change /veh FIZ1 (11724087_x_at) / RFU OASL (11726364_x_at) / Fold change /veh OASL (11726364_x_at) / RFU SOX15 (11748057_x_at) / Fold change /veh SOX15 (11748057_x_at) / RFU CD79A (11719716_a_at) / Fold change /veh CD79A (11719716_a_at) / RFU HIST1H1D (11736915_at) / Fold change /veh HIST1H1D (11736915_at) / RFU CASKIN2 (11723855_a_at) / Fold change /veh CASKIN2 (11723855_a_at) / RFU LOC730098 (11760151_x_at) / Fold change /veh LOC730098 (11760151_x_at) / RFU OR4N2 (11742367_at) / Fold change /veh OR4N2 (11742367_at) / RFU PRRT2 (11749266_a_at) / Fold change /veh PRRT2 (11749266_a_at) / RFU SNX32 (11753110_a_at) / Fold change /veh SNX32 (11753110_a_at) / RFU CDHR5 (11726645_a_at) / Fold change /veh CDHR5 (11726645_a_at) / RFU RCAN1 (11760418_a_at) / Fold change /veh RCAN1 (11760418_a_at) / RFU FAM167A (11723789_a_at) / Fold change /veh FAM167A (11723789_a_at) / RFU FAM26E (11764081_at) / Fold change /veh FAM26E (11764081_at) / RFU ISYNA1 (11749810_s_at) / Fold change /veh ISYNA1 (11749810_s_at) / RFU ACY1 (11761880_at) / Fold change /veh ACY1 (11761880_at) / RFU 11764098_at / Fold change /veh 11764098_at / RFU SAMD14 (11745864_x_at) / Fold change /veh SAMD14 (11745864_x_at) / RFU NPB (11741838_a_at) / Fold change /veh NPB (11741838_a_at) / RFU TMPRSS6 (11731388_a_at) / Fold change /veh TMPRSS6 (11731388_a_at) / RFU KRTAP10-2 (11738614_at) / Fold change /veh KRTAP10-2 (11738614_at) / RFU ARHGAP8 /// PRR5-ARHGAP8 (11727945_x_at) / Fold change /veh ARHGAP8 /// PRR5-ARHGAP8 (11727945_x_at) / RFU KRTAP5-7 /// NADSYN1 (11734609_at) / Fold change /veh KRTAP5-7 /// NADSYN1 (11734609_at) / RFU RASL12 (11751679_a_at) / Fold change /veh RASL12 (11751679_a_at) / RFU CDKN2B (11736163_a_at) / Fold change /veh CDKN2B (11736163_a_at) / RFU PRF1 (11729649_at) / Fold change /veh PRF1 (11729649_at) / RFU, ZNF638 /// ZNF638-IT1 / Fold change vs veh, ZNF638 /// ZNF638-IT1 / RFU, PANK3 / Fold change vs veh, PANK3 / RFU, SH3YL1 / Fold change vs veh, SH3YL1 / RFU, ZEB2 / Fold change vs veh, ZEB2 / RFU, NRIP1 / Fold change vs veh, NRIP1 / RFU, PTTG1IP / Fold change vs veh, PTTG1IP / RFU, CAPN2 / Fold change vs veh, CAPN2 / RFU, MED14 / Fold change vs veh, MED14 / RFU, SNORA58 / Fold change vs veh, SNORA58 / RFU, C1orf63 / Fold change vs veh, C1orf63 / RFU, LRRFIP1 / Fold change vs veh, LRRFIP1 / RFU, NDUFAF7 / Fold change vs veh, NDUFAF7 / RFU, SLC12A2 / Fold change vs veh, SLC12A2 / RFU, IBTK / Fold change vs veh, IBTK / RFU, ESF1 / Fold change vs veh, ESF1 / Fold change vs veh, TMEM50B / RFU, TAOK1 / Fold change vs veh, TAOK1 / RFU, ACBD3 / Fold change vs veh, ACBD3 / RFU, TMA16 / Fold change vs veh, TMA16 / RFU, RWDD3 / Fold change vs veh, RWDD3 / RFU, BCAT1 / Fold change vs veh, BCAT1 / RFU, EDEM3 / Fold change vs veh, EDEM3 / RFU, TMEM33 / Fold change vs veh, TMEM33 / RFU, WDR75 / Fold change vs veh, WDR75 / RFU, AHCTF1 / Fold change vs veh, AHCTF1 / RFU, TFRC / Fold change vs veh, TFRC / RFU, ZDHHC17 / Fold change vs veh, ZDHHC17 / RFU, NOM1 / Fold change vs veh, NOM1 / RFU, ARL8B / Fold change vs veh, ARL8B / RFU, ZBTB11 / Fold change vs veh, ZBTB11 / RFU, TAMM41 / Fold change vs veh, TAMM41 / RFU, KIAA1704 /// LOC100996395 / Fold change vs veh, KIAA1704 /// LOC100996395 / RFU, ING1 / Fold change vs veh, ING1 / RFU, TRMT61B / Fold change vs veh, TRMT61B / RFU, FUBP3 / Fold change vs veh, FUBP3 / RFU, TP53 / Fold change vs veh, TP53 / RFU, TNKS2 / Fold change vs veh, TNKS2 / RFU, ZFP14 / Fold change vs veh, ZFP14 / RFU, ACTR2 / Fold change vs veh, ACTR2 / RFU, PPP3R1 / Fold change vs veh, PPP3R1 / RFU, PIK3R1 / Fold change vs veh, PIK3R1 / RFU, HNRNPA1 / Fold change vs veh, HNRNPA1 / RFU, RNF170 / Fold change vs veh, RNF170 / RFU, ZNF28 / Fold change vs veh, ZNF28 / RFU, RNGTT / Fold change vs veh, RNGTT / RFU, OGT / Fold change vs veh, OGT / RFU, BRD1 / Fold change vs veh, BRD1 / RFU, MARS / Fold change vs veh, MARS / RFU, ZNF655 / Fold change vs veh, ZNF655 / RFU, FAHD1 / Fold change vs veh, FAHD1 / RFU, BDP1 / Fold change vs veh, BDP1 / RFU, LRRCC1 / Fold change vs veh, LRRCC1 / RFU, ARID1A / Fold change vs veh, ARID1A / RFU, ZNF146 / Fold change vs veh, ZNF146 / RFU, ZNF330 / Fold change vs veh, ZNF330 / RFU, GPN3 / Fold change vs veh, GPN3 / RFU, C9orf123 / Fold change vs veh, C9orf123 / RFU, N4BP2L2 / Fold change vs veh, N4BP2L2 / RFU, ARFIP1 / Fold change vs veh, ARFIP1 / RFU, FAM179B / Fold change vs veh, FAM179B / RFU, BCL10 / Fold change vs veh, BCL10 / RFU, UHRF1BP1L / Fold change vs veh, UHRF1BP1L / RFU, BET1 / Fold change vs veh, BET1 / RFU, CNOT2 / Fold change vs veh, CNOT2 / RFU, ZNF268 / Fold change vs veh, ZNF268 / Fold change vs veh, ZNF507 / RFU, DGCR2 / Fold change vs veh, DGCR2 / RFU, WDSUB1 / Fold change vs veh, WDSUB1 / Fold change vs veh, HSP90B1 /// MIR3652 / RFU, ADSS / Fold change vs veh, ADSS / RFU, GK / Fold change vs veh, GK / RFU, ZNF148 / Fold change vs veh, ZNF148 / RFU, TAF9 / Fold change vs veh, TAF9 / RFU, SLC1A5 / Fold change vs veh, SLC1A5 / RFU, SLMO2 / Fold change vs veh, SLMO2 / RFU, ABCC4 / Fold change vs veh, ABCC4 / RFU, LOC101060439 /// RAP1B / Fold change vs veh, LOC101060439 /// RAP1B / RFU, RFX7 / Fold change vs veh, RFX7 / RFU, GTPBP10 / Fold change vs veh, GTPBP10 / RFU, CNEP1R1 / Fold change vs veh, CNEP1R1 / RFU, BIVM-ERCC5 /// ERCC5 / Fold change vs veh, BIVM-ERCC5 /// ERCC5 / RFU, ILF3 / Fold change vs veh, ILF3 / RFU 11762660_at / Fold change /veh 11762660_at / RFU VCAN (11757783_s_at) / Fold change /veh VCAN (11757783_s_at) / RFU DDX43 (11728927_at) / Fold change /veh DDX43 (11728927_at) / RFU KRT8 (11758188_x_at) / Fold change /veh KRT8 (11758188_x_at) / RFU NKD1 (11759106_at) / Fold change /veh NKD1 (11759106_at) / RFU SRD5A1 (11742802_a_at) / Fold change /veh SRD5A1 (11742802_a_at) / RFU TPSAB1 /// TPSB2 (11721975_s_at) / Fold change /veh TPSAB1 /// TPSB2 (11721975_s_at) / RFU GSTM3 (11746129_a_at) / Fold change /veh GSTM3 (11746129_a_at) / RFU IL23R (11737362_x_at) / Fold change /veh IL23R (11737362_x_at) / RFU TMEM51 (11727254_a_at) / Fold change /veh TMEM51 (11727254_a_at) / RFU PIWIL2 (11732686_x_at) / Fold change /veh PIWIL2 (11732686_x_at) / RFU ORM1 (11744905_x_at) / Fold change /veh ORM1 (11744905_x_at) / RFU CCDC152 (11743942_at) / Fold change /veh CCDC152 (11743942_at) / RFU ECM1 (11717891_a_at) / Fold change /veh ECM1 (11717891_a_at) / RFU IL23R (11748794_a_at) / Fold change /veh IL23R (11748794_a_at) / RFU TNFAIP8L3 (11732012_x_at) / Fold change /veh TNFAIP8L3 (11732012_x_at) / RFU MBOAT4 (11741988_at) / Fold change /veh MBOAT4 (11741988_at) / RFU 11764193_at / Fold change /veh 11764193_at / RFU TMEM53 (11763286_at) / Fold change /veh TMEM53 (11763286_at) / RFU MAGEB2 (11727129_at) / Fold change /veh MAGEB2 (11727129_at) / RFU TMEM200A (11744735_a_at) / Fold change /veh TMEM200A (11744735_a_at) / RFU CCDC152 (11751479_a_at) / Fold change /veh CCDC152 (11751479_a_at) / RFU FAM211A (11726209_a_at) / Fold change /veh FAM211A (11726209_a_at) / RFU RGS16 (11746705_a_at) / Fold change /veh RGS16 (11746705_a_at) / RFU VCAN (11755009_s_at) / Fold change /veh VCAN (11755009_s_at) / RFU RHOB (11743442_s_at) / Fold change /veh RHOB (11743442_s_at) / RFU RGS16 (11720943_a_at) / Fold change /veh RGS16 (11720943_a_at) / RFU RGS16 (11720944_at) / Fold change /veh RGS16 (11720944_at) / RFU, VPS4B / Fold change vs veh, VPS4B / RFU, CREB1 / Fold change vs veh, CREB1 / RFU, DNAJC13 / Fold change vs veh, DNAJC13 / RFU, GNAQ / Fold change vs veh, GNAQ / RFU, CDK5R1 / Fold change vs veh, CDK5R1 / RFU, ZRANB3 / Fold change vs veh, ZRANB3 / RFU, CUL4A / Fold change vs veh, CUL4A / RFU, CCNY / Fold change vs veh, CCNY / RFU, UFL1 / Fold change vs veh, UFL1 / RFU, COG3 / Fold change vs veh, COG3 / RFU, DIAPH2 / Fold change vs veh, DIAPH2 / RFU, SKA2 / Fold change vs veh, SKA2 / RFU, AFF3 / Fold change vs veh, AFF3 / RFU, LMF1 / Fold change vs veh, LMF1 / RFU, IPO11 / Fold change vs veh, IPO11 / RFU, DFFB / Fold change vs veh, DFFB / RFU, FOXP1 / Fold change vs veh, FOXP1 / RFU, CARD8 / Fold change vs veh, CARD8 / RFU, STRN3 / Fold change vs veh, STRN3 / RFU, ADK / Fold change vs veh, ADK / RFU, RASSF2 / Fold change vs veh, RASSF2 / RFU, WIPF1 / Fold change vs veh, WIPF1 / RFU, LARP1B / Fold change vs veh, LARP1B / RFU, RASA1 / Fold change vs veh, RASA1 / RFU, RB1 / Fold change vs veh, RB1 / RFU, PPFIA1 / Fold change vs veh, PPFIA1 / RFU, MAT2A / Fold change vs veh, MAT2A / RFU, CCT5 / Fold change vs veh, CCT5 / RFU, WDR92 / Fold change vs veh, WDR92 / RFU, CUX1 / Fold change vs veh, CUX1 / RFU, TTC7A / Fold change vs veh, TTC7A / RFU, TMEM135 / Fold change vs veh, TMEM135 / RFU, DEPTOR / Fold change vs veh, DEPTOR / RFU, CPM / Fold change vs veh, CPM / RFU, DNAJB6 / Fold change vs veh, DNAJB6 / RFU, CACNA2D3 / Fold change vs veh, CACNA2D3 / RFU, DTX4 / Fold change vs veh, DTX4 / RFU, TFCP2 / Fold change vs veh, TFCP2 / RFU, GMCL1 /// GMCL1P1 / Fold change vs veh, GMCL1 /// GMCL1P1 / RFU, AEBP2 / Fold change vs veh, AEBP2 / RFU, SNHG1 /// SNORD22 /// SNORD25 /// SNORD26 /// SNORD27 /// SNORD28 /// SNORD29 /// SNORD31 / Fold change vs veh, SNHG1 /// SNORD22 /// SNORD25 /// SNORD26 /// SNORD27 /// SNORD28 /// SNORD29 /// SNORD31 / Fold change (Aza/veh), C12orf56 (ProbeSet 11735607_a_at) / Fold change (ACY-1035/veh), C12orf56 (ProbeSet 11735607_a_at) / Fold change (Aza/veh), FGFR1OP (ProbeSet 11751329_s_at) / Fold change (ACY-1035/veh), FGFR1OP (ProbeSet 11751329_s_at) / Fold change (Aza/veh), VPS36 (ProbeSet 11739960_a_at) / Fold change (ACY-1035/veh), VPS36 (ProbeSet 11739960_a_at) / RFU SYPL1 (11715823_x_at) / Fold change /veh SYPL1 (11715823_x_at) / RFU IGFBP7 (11715501_s_at) / Fold change /veh IGFBP7 (11715501_s_at) / RFU REEP3 (11722064_at) / Fold change /veh REEP3 (11722064_at) / RFU IGLL1 (11728026_x_at) / Fold change /veh IGLL1 (11728026_x_at): dose or concentration left out as unconfirmed
Settings: ProbeSet 11763895_x_at; LIST B

Compound: Nc1ccc(-c2cccs2)cc1NC(=O)c1ccc2c(c1)cc(C1CC1)n2CCN1CCOCC1 [ACY-1035]
- Fold change vs veh, SNORA58: 0.89
